# From patent US9981959B2, “Thiazolyl and oxazolyl urea, thiourea, guanidine and cyanoguanidine compounds as TrkA kinase inhibitors” (Array BioPharma Inc., priority 2012, dated 2018)
# How the values were obtained:
# Test in all cases: KinaseProfiler off-target kinase profiling
# Assay type in all cases: biochemical
# Conditions in all cases: 10 μM, ATP near Km
# CDK5/p25 = molecular target: T1, CDK5/p25 (Homo sapiens, UniProt Q00535)
# T1 construct: purchased Millipore, Inc. (KinaseProfiler service)
# How it was run: (§1)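 The kinase was incubated with 10 μM compound and ATP near its Km. Two replicates were run, and their mean activity is given as percent of control.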
# p38delta = molecular target: T2, p38delta (Homo sapiens, UniProt O15264)
# T2 construct: purchased Millipore, Inc. (KinaseProfiler service)
# How it was run: as §1
# Fyn = molecular target: T3, Fyn (Homo sapiens, UniProt P06241)
# T3 construct: purchased Millipore, Inc. (KinaseProfiler service)
# How it was run: as §1
# SGK2 = molecular target: T4, SGK2 (Homo sapiens, UniProt Q9HBY8)
# T4 construct: purchased Millipore, Inc. (KinaseProfiler service)
# How it was run: as §1
# PRKG1beta = molecular target: T5, PRKG1beta (Homo sapiens, UniProt Q13976)
# T5 construct: purchased Millipore, Inc. (KinaseProfiler service)
# How it was run: as §1
# BLK_m = molecular target: T6, BLK_m (Mus musculus, UniProt P16277)
# T6 construct: purchased Millipore (KinaseProfiler service)
# How it was run: as §1
# Fms = molecular target: T7, Fms (Homo sapiens, UniProt P07333)
# T7 construct: purchased Millipore, Inc. (KinaseProfiler service)
# How it was run: as §1
# EphB3 = molecular target: T8, EphB3 (Homo sapiens, UniProt P54753)
# T8 construct: purchased Millipore, Inc. (KinaseProfiler service)
# T8 sequence (P54753 34-998): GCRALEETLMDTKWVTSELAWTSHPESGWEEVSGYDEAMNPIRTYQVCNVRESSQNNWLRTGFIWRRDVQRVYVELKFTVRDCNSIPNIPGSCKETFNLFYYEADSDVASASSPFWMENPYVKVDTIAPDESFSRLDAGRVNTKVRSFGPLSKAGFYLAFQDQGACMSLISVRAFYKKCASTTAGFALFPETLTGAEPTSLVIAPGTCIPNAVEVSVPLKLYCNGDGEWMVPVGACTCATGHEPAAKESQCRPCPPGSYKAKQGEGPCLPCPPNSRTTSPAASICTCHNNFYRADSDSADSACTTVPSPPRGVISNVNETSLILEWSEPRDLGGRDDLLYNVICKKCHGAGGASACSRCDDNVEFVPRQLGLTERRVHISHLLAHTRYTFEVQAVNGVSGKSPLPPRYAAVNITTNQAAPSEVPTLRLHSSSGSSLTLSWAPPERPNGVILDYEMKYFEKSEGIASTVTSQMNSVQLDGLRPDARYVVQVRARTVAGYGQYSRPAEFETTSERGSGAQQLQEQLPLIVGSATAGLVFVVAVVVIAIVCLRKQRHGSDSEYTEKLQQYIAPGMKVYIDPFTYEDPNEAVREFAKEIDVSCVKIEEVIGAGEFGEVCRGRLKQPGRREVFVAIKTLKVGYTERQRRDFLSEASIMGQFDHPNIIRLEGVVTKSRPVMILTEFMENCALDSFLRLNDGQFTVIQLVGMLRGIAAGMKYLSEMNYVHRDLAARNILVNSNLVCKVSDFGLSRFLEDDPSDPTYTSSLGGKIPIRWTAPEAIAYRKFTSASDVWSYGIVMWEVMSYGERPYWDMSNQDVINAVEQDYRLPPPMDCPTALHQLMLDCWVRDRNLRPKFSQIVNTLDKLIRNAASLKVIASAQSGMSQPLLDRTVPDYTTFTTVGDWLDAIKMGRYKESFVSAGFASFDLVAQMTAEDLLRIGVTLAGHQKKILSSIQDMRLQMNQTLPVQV
# How it was run: as §1
# EphB4 = molecular target: T9, EphB4 (Homo sapiens, UniProt P54760)
# T9 construct: purchased Millipore, Inc. (KinaseProfiler service)
# T9 sequence (P54760 16-987): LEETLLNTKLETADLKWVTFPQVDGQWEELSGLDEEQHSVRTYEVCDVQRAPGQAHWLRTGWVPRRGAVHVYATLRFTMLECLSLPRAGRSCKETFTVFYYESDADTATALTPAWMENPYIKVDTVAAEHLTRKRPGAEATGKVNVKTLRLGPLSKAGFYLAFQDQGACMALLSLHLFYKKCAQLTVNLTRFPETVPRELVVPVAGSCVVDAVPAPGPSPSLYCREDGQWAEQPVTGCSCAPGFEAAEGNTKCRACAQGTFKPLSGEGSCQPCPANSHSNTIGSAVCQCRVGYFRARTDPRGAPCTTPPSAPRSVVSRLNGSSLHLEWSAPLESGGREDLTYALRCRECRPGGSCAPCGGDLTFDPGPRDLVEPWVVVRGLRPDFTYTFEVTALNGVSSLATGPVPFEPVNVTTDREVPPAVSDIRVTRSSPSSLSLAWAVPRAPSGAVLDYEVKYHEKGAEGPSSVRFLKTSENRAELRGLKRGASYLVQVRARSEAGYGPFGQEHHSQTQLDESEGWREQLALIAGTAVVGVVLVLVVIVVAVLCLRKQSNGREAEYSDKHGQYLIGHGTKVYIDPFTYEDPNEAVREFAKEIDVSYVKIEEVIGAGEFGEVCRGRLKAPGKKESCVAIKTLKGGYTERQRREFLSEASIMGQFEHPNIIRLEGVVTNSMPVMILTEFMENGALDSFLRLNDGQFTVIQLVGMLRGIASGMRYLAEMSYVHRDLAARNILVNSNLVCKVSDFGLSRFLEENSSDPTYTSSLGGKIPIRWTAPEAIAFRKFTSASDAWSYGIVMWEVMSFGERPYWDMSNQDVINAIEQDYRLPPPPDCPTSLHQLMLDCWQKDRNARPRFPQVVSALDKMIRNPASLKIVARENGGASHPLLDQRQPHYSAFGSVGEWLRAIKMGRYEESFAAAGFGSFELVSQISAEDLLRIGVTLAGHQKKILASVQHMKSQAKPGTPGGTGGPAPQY
# How it was run: as §1
# DDR2 = molecular target: T10, DDR2 (Homo sapiens, UniProt Q16832)
# T10 construct: purchased Millipore, Inc. (KinaseProfiler service)
# How it was run: as §1
# MST1 = molecular target: T11, MST1 (Homo sapiens, UniProt Q13043)
# T11 construct: purchased Millipore, Inc. (KinaseProfiler service)
# How it was run: as §1
# ALK4 = molecular target: T12, ALK4 (Homo sapiens, UniProt P36896)
# T12 construct: purchased Millipore (KinaseProfiler service)
# How it was run: as §1
# Fgr = molecular target: T13, Fgr (Homo sapiens, UniProt P09769)
# T13 construct: purchased Millipore, Inc. (KinaseProfiler service)
# How it was run: as §1
# MAPKAP-K5 = molecular target: T14, MAPKAP-K5 (Homo sapiens, UniProt Q8IW41)
# T14 construct: purchased Millipore, Inc. (KinaseProfiler service)
# How it was run: as §1
# Flt1 = molecular target: T15, Flt1 (Homo sapiens, UniProt P17948)
# T15 construct: purchased Millipore, Inc. (KinaseProfiler service)
# How it was run: as §1
# PrKX = molecular target: T16, PrKX (Homo sapiens, UniProt P51817)
# T16 construct: purchased Millipore, Inc. (KinaseProfiler service)
# How it was run: as §1
# JNK1alpha1 = molecular target: T17, JNK1alpha1 (Homo sapiens, UniProt P45983)
# T17 construct: purchased Millipore, Inc. (KinaseProfiler service)
# How it was run: as §1
# CK1_y = test system: CK1_y
# How it was run: as §1
# IKKbeta = molecular target: T18, IKKbeta (Homo sapiens, UniProt O14920)
# T18 construct: purchased Millipore, Inc. (KinaseProfiler service)
# How it was run: as §1
# Tie2 = molecular target: T19, Tie2 (Homo sapiens, UniProt Q02763)
# T19 construct: purchased Millipore, Inc. (KinaseProfiler service)
# How it was run: as §1
# SRPK2 = molecular target: T20, SRPK2 (Homo sapiens, UniProt P78362)
# T20 construct: purchased Millipore, Inc. (KinaseProfiler service)
# How it was run: as §1
# Plk2 = molecular target: T21, Plk2 (Homo sapiens, UniProt Q9NYY3)
# T21 construct: purchased Millipore, Inc. (KinaseProfiler service)
# How it was run: as §1
# CDK9/cyclinT1 = molecular target: T22, CDK9/cyclinT1 (Homo sapiens, UniProt P50750)
# T22 construct: purchased Millipore, Inc. (KinaseProfiler service)
# How it was run: as §1
# GRK5 = molecular target: T23, GRK5 (Homo sapiens, UniProt P34947)
# T23 construct: purchased Millipore, Inc. (KinaseProfiler service)
# How it was run: as §1
# ARK5 = molecular target: T24, ARK5 (Homo sapiens, UniProt O60285)
# T24 construct: purchased Millipore (KinaseProfiler service)
# How it was run: as §1
# Flt4 = molecular target: T25, Flt4 (Homo sapiens, UniProt P35916)
# T25 construct: purchased Millipore, Inc. (KinaseProfiler service)
# T25 sequence (P35916 25-1363): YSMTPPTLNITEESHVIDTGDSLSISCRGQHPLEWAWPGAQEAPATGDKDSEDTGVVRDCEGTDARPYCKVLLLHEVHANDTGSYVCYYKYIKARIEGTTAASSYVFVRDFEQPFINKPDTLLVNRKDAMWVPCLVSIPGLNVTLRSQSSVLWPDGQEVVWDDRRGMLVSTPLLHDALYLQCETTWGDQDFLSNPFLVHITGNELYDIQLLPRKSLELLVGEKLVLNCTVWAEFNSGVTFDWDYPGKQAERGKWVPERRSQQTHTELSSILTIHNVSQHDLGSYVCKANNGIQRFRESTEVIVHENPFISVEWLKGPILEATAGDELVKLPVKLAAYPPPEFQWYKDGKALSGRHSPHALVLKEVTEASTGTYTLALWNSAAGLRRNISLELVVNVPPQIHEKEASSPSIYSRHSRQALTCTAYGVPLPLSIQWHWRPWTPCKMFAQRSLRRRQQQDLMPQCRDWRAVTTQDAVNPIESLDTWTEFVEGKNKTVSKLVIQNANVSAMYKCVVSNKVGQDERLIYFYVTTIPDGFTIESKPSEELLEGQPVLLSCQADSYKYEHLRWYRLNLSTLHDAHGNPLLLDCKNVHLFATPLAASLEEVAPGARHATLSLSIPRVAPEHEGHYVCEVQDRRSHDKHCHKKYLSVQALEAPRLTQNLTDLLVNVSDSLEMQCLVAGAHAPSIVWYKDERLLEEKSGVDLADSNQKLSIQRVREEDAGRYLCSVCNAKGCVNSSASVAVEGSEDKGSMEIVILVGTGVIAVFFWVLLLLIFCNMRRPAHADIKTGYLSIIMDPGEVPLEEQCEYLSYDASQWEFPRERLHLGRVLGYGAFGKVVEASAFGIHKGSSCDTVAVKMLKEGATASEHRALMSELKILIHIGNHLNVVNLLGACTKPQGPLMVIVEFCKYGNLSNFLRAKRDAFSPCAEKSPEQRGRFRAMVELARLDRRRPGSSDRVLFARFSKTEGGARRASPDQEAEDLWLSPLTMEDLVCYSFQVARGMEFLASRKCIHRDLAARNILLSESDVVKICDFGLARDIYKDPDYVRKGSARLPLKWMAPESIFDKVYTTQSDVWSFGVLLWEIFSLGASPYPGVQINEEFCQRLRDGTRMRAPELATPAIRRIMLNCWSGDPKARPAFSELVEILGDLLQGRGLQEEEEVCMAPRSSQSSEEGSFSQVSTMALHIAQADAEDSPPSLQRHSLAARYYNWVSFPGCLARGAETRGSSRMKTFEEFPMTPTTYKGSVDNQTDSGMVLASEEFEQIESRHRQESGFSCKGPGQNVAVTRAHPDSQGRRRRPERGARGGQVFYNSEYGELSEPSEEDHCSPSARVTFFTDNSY
# How it was run: as §1
# ROCK-II = molecular target: T26, ROCK-II (Homo sapiens, UniProt O75116)
# T26 construct: purchased Millipore, Inc. (KinaseProfiler service)
# How it was run: as §1
# WNK2 = molecular target: T27, WNK2 (Homo sapiens, UniProt Q9Y3S1)
# T27 construct: purchased Millipore, Inc. (KinaseProfiler service)
# How it was run: as §1
# Ron = molecular target: T28, Ron (Homo sapiens, UniProt Q04912)
# T28 construct: purchased Millipore, Inc. (KinaseProfiler service)
# How it was run: as §1
# Plk3 = molecular target: T29, Plk3 (Homo sapiens, UniProt Q9H4B4)
# T29 construct: purchased Millipore, Inc. (KinaseProfiler service)
# How it was run: as §1
# CAMK4 = molecular target: T30, CAMK4 (Homo sapiens, UniProt Q16566)
# T30 construct: purchased Millipore (KinaseProfiler service)
# How it was run: as §1
# NEK7 = molecular target: T31, NEK7 (Homo sapiens, UniProt Q8TDX7)
# T31 construct: purchased Millipore, Inc. (KinaseProfiler service)
# How it was run: as §1
# IRAK4 = molecular target: T32, IRAK4 (Homo sapiens, UniProt Q9NWZ3)
# T32 construct: purchased Millipore, Inc. (KinaseProfiler service)
# How it was run: as §1
# CDK2/cyclinA = molecular target: T33, CDK2/cyclinA (Homo sapiens, UniProt P24941)
# T33 construct: purchased Millipore (KinaseProfiler service)
# How it was run: as §1
# CHK2 = molecular target: T34, CHK2 (Homo sapiens, UniProt O96017)
# T34 construct: purchased Millipore, Inc. (KinaseProfiler service)
# How it was run: as §1
# FAK2 = molecular target: T35, FAK2 (Homo sapiens, UniProt Q14289)
# T35 construct: purchased Millipore, Inc. (KinaseProfiler service)
# How it was run: as §1
# CAMK2d = molecular target: T36, CAMK2d (Homo sapiens, UniProt Q13557)
# T36 construct: purchased Millipore (KinaseProfiler service)
# T36 sequence (Q13557 whole entry): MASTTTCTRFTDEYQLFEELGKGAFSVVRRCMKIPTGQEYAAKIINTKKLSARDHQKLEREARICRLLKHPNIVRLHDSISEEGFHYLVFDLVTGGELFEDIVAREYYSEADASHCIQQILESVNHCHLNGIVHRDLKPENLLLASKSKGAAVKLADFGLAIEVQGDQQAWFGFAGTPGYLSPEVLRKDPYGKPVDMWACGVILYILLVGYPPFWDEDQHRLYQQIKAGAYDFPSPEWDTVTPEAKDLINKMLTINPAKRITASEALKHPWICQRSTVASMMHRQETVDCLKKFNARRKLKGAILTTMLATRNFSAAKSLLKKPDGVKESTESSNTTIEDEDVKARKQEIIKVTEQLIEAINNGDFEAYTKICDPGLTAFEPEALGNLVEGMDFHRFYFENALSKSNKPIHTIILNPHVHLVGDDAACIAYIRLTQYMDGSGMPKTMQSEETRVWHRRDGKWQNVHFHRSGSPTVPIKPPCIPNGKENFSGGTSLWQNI
# How it was run: as §1
# HIPK1 = molecular target: T37, HIPK1 (Homo sapiens, UniProt Q86Z02)
# T37 construct: purchased Millipore, Inc. (KinaseProfiler service)
# T37 sequence (Q86Z02 whole entry): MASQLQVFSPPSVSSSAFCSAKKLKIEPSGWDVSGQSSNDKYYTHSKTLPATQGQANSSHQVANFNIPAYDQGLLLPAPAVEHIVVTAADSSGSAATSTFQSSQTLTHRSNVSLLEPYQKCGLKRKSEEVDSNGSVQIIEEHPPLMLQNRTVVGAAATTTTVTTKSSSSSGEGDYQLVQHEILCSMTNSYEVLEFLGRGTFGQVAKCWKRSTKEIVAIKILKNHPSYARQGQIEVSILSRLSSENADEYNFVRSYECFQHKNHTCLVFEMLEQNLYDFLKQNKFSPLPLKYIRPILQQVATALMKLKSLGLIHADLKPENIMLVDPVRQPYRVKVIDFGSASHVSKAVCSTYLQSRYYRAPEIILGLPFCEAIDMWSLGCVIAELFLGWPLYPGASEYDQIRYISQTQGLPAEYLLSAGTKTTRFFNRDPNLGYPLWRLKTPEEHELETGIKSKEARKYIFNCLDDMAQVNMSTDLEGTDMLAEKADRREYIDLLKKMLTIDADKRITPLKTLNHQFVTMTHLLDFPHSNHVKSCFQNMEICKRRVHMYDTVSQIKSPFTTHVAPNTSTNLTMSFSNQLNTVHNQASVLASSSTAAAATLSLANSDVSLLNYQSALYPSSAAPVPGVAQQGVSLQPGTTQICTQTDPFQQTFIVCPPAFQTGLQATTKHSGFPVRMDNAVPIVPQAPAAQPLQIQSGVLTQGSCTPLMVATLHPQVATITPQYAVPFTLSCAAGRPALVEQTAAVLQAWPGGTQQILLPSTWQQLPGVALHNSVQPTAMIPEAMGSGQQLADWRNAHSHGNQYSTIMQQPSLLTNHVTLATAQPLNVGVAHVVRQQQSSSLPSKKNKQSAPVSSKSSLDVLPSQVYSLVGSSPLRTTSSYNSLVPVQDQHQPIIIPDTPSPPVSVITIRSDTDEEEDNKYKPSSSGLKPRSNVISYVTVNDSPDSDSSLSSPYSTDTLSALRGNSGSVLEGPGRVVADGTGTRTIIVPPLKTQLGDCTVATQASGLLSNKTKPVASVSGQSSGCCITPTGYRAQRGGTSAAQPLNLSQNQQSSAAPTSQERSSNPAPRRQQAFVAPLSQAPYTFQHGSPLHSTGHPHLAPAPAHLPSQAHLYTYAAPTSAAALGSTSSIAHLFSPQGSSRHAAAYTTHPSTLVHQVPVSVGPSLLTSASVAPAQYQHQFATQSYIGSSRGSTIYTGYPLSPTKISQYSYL
# How it was run: as §1
# HIPK2 = molecular target: T38, HIPK2 (Homo sapiens, UniProt Q9H2X6)
# T38 construct: purchased Millipore, Inc. (KinaseProfiler service)
# How it was run: as §1
# TNK2 = molecular target: T39, TNK2 (Homo sapiens, UniProt Q07912)
# T39 construct: purchased Millipore, Inc. (KinaseProfiler service)
# How it was run: as §1
# Rsk2 = molecular target: T40, Rsk2 (Homo sapiens, UniProt P51812)
# T40 construct: purchased Millipore, Inc. (KinaseProfiler service)
# How it was run: as §1
smiles,measurement,setting,value
"Cc1c(-c2cnn(C)c2)nn(-c2ccccc2)c1NC(=O)Nc1sc(C(F)(F)F)nc1-c1ccccc1 [Example 2, 1-(1′,4-dimethyl-1-phenyl-1H,1′H-[3,4′-bipyrazol]-5-yl)-3-(4-phenyl-2-(trifluoromethyl)thiazol-5-yl)urea]",Avg POC,CDK5/p25,104.5 POC
same,Avg POC,p38delta,104.5 POC
same,Avg POC,Fyn,105.5 POC
same,Avg POC,SGK2,144.5 POC
same,Avg POC,PRKG1beta,119 POC
same,Avg POC,BLK_m,112 POC
same,Avg POC,Fms,89.5 POC
same,Avg POC,EphB3,72.5 POC
same,Avg POC,EphB4,130 POC
same,Avg POC,DDR2,98 POC
same,Avg POC,MST1,100.5 POC
same,Avg POC,ALK4,107 POC
same,Avg POC,Fgr,128 POC
same,Avg POC,MAPKAP-K5,95.5 POC
same,Avg POC,Flt1,104 POC
same,Avg POC,PrKX,122 POC
same,Avg POC,JNK1alpha1,113 POC
same,Avg POC,CK1_y,103 POC
same,Avg POC,IKKbeta,112 POC
same,Avg POC,Tie2,131.5 POC
same,Avg POC,SRPK2,113.5 POC
same,Avg POC,Plk2,99 POC
same,Avg POC,CDK9/cyclinT1,108 POC
same,Avg POC,GRK5,82.5 POC
same,Avg POC,ARK5,102 POC
same,Avg POC,Flt4,107 POC
same,Avg POC,ROCK-II,115.5 POC
same,Avg POC,WNK2,115 POC
same,Avg POC,Ron,110.5 POC
same,Avg POC,Plk3,105 POC
same,Avg POC,CAMK4,132.5 POC
same,Avg POC,NEK7,119.5 POC
same,Avg POC,IRAK4,112 POC
same,Avg POC,CDK2/cyclinA,122 POC
same,Avg POC,CHK2,133 POC
same,Avg POC,FAK2,107 POC
same,Avg POC,CAMK2d,118 POC
same,Avg POC,HIPK1,108 POC
same,Avg POC,HIPK2,98.5 POC
same,Avg POC,TNK2,142.5 POC
same,Avg POC,Rsk2,131 POC
